We go through 10 compounds from ChEMBL document CHEMBL1201862, “PubChem BioAssay data set” (2004).

Each structure is given as a SMILES string.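 Dose response: 5 concentrations. Exposure: 48 h. Format: 96-well plates. Endpoint: linear interpolation; highest concentration if not reached. Here, GI50 denotes the concentration required for 50% inhibition of growth.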 The source made the active and inactive calls. Rule as the data show it: active = GI50 up to about 1.1 µM and inactive = higher.

Assay in all cases: DTP human tumour cell line panel, 48 h
Experiment [1] has as its system HCT-15.
Experiment [2] relates to SK-MEL-5.
In experiment [3] the test system is SK-OV-3.
The subject of experiment [4] is Hs-578T.
In experiment [5] the test system is DU-145.
In experiment [6] the test system is OVCAR-4.
Experiment [7] has as its system LOX IMVI.
Experiment [8] has as its system SK-MEL-28.
For experiment [9], the system named is OVCAR-5.
The test system of experiment [10] is NCI-H226.
The subject of experiment [11] is EKVX.
Experiment [12] has as its system K562.
Experiment [13] concerns SF-539.
Experiment [14] deals with MDA-MB-435.
The test system of experiment [15] is COLO 205.
Experiment [16] has as its system SF-268.
In experiment [17] the test system is SR.
Experiment [18] deals with HOP-92.
For experiment [19], the system named is MDA-MB-231.
For experiment [20], the system named is RPMI-8226.

By GI50 is commonly meant the concentration giving 50% growth inhibition. For the compound `N/C(=N\N=C\c1nc2ccccc2o1)c1cnccn1`, the GI50 in [1] is over 100 µM; in experiment [2], > 100 µM (inactive); in [3], 42.7 µM (inactive); in [4] it was > 100 µM (inactive); in experiment [5], > 100 µM (inactive); in experiment [6], > 100 µM (inactive). For the same compound, the GI50 in experiment [7], in [8], in experiment [9], in [10], in [11] and in [12] was > 100 µM (inactive) in each case. The GI50 in experiment [13], in [14], in experiment [15], in [16], in [17] and in experiment [18] was > 100 µM (inactive) each time. The GI50 in experiment [19] is 51.2 µM (inactive); in experiment [20], > 100 µM (inactive).
In the case of `CC(C)/C(Cl)=N\OC(=O)Nc1ccc(F)c([N+](=O)[O-])c1`, the GI50 in [1] is 2.59 µM; in experiment [2], 8.43 µM (inactive); in experiment [3], 19.1 µM (inactive); in experiment [4] it was 12.1 µM (inactive); in experiment [5], 18.2 µM (inactive); in experiment [6], 4.07 µM (inactive). Besides, the GI50 was 4.54 µM (inactive) in [7]; 12.6 µM (inactive) in experiment [8]; 20.6 µM (inactive) in [9]; 23.7 µM (inactive) in experiment [10]; 11.7 µM (inactive) in experiment [11]; 2.87 µM (inactive) in experiment [12]. Besides, the GI50 in experiment [13] is 3 µM (inactive); in experiment [14] it was 12.3 µM (inactive); in experiment [15], 2.03 µM (inactive); in experiment [16], 14.3 µM (inactive); in [17] it was 5.65 µM (inactive); in experiment [18], 2.22 µM (inactive). For the same compound, the figures for the GI50 in [19] and in [20] were 12.7 µM (inactive) and 2.43 µM (inactive), respectively.
With `CSc1ncc2c(C#N)c3n(C)c4ccccc4n3c(=O)c2n1`, the GI50 in experiment [1] was over 100 µM; in [2] it was > 100 µM (inactive); in experiment [3], > 100 µM (inactive); in experiment [4], > 100 µM (inactive); in experiment [5], > 100 µM (inactive); in experiment [6] it was > 100 µM (inactive). Further, the GI50 in [7], in experiment [8], in experiment [9], in experiment [10], in experiment [11] and in [12] was > 100 µM (inactive) throughout. Further, the GI50 in [13], in experiment [14], in experiment [15], in experiment [16], in [17] and in [18] was > 100 µM (inactive) throughout. Further, the GI50 in [19] and in experiment [20] was > 100 µM (inactive) throughout.
For the compound `O=c1[nH]ncc2[nH]c3c(c12)CCc1ccccc1-3`, the GI50 in experiment [1] is 30.8 µM; in [2], 11 µM (inactive); in experiment [3], 24.6 µM (inactive); in experiment [4], 10.4 µM (inactive); in experiment [5] it was 38 µM (inactive); in experiment [6], 32.1 µM (inactive). Moreover, the GI50 in experiment [7] is 22.5 µM (inactive); in experiment [8] it was 39.9 µM (inactive); in experiment [9], 44.3 µM (inactive); in experiment [10], 13.5 µM (inactive); in [11], 2.22 µM (inactive); in experiment [12], 28.9 µM (inactive). The GI50 is 18.5 µM (inactive) in experiment [13]; 24.9 µM (inactive) in [14]; 13.2 µM (inactive) in [15]; 32.1 µM (inactive) in [16]; 19.1 µM (inactive) in experiment [17]; 30.9 µM (inactive) in [18]. Besides, the GI50 is 37.9 µM (inactive) in experiment [19] and 30.1 µM (inactive) in experiment [20].
Regarding `CC1(C)[C@@H]2CC[C@@]1(C)C1(S[S+]1[O-])C21Cc2ccccc2C1` (stereo not given in full), the GI50 in experiment [1] was 22.6 µM; in experiment [2] it was > 10 µM (inactive); in experiment [3] it was > 100 µM (inactive); in [4], 44.2 µM (inactive); in [5], 21.3 µM (inactive); in experiment [6] it was 15.6 µM (inactive). The GI50 was 15.1 µM (inactive) in [7]; 23.1 µM (inactive) in experiment [8]; 20.6 µM (inactive) in [9]; > 100 µM (inactive) in [10]; 23.8 µM (inactive) in experiment [11]; 17.4 µM (inactive) in experiment [12]. Besides, the GI50 was 24.5 µM (inactive) in experiment [13]; 29.4 µM (inactive) in experiment [14]; 30.6 µM (inactive) in experiment [15]; 33.1 µM (inactive) in [16]; 14.5 µM (inactive) in [17]; 23.3 µM (inactive) in experiment [18]. In addition, the GI50 was 17.3 µM (inactive) in experiment [19] and 21 µM (inactive) in experiment [20].
For `COc1ccc(C(=O)/C=C/c2ccc3c(c2)OCO3)c(OCc2ccccc2)c1`, the GI50 was 5.08 µM in experiment [1]; 25.6 µM (inactive) in experiment [2]; > 54.8 µM (inactive) in [3]; 7.82 µM (inactive) in experiment [4]; > 39.2 µM (inactive) in experiment [5]; 15.1 µM (inactive) in [6]. In addition, the GI50 in experiment [7] was 7.89 µM (inactive); in [8] it was > 100 µM (inactive); in experiment [9] it was > 76.7 µM (inactive); in experiment [10] it was 18.6 µM (inactive); in experiment [11], 29.8 µM (inactive); in experiment [12] it was 12.5 µM (inactive). Moreover, the GI50 in experiment [13] is 32.7 µM (inactive); in experiment [14], 25.5 µM (inactive); in [15], > 75.5 µM (inactive); in [16] it was 6.76 µM (inactive); in [17] it was 3.24 µM (inactive); in experiment [18], > 78 µM (inactive). Further, the results for the GI50 in experiment [19] and in [20] were > 70.1 µM (inactive) and 4.45 µM (inactive), respectively.
With `O=[N+]([O-])c1ccc2nc(O)n[n+]([O-])c2c1`, the GI50 is over 100 µM in [1]; > 100 µM (inactive) in experiment [2]; > 100 µM (inactive) in [3]; > 100 µM (inactive) in experiment [4]; > 100 µM (inactive) in experiment [5]; > 100 µM (inactive) in experiment [6]. The GI50 in experiment [7], in [8], in [9], in experiment [10], in experiment [11] and in experiment [12] was > 100 µM (inactive) each time. Besides, the GI50 in experiment [13] was > 100 µM (inactive); in [14] it was > 100 µM (inactive); in experiment [15], > 100 µM (inactive); in experiment [16], > 100 µM (inactive); in experiment [17], > 20.6 µM (inactive); in experiment [18], > 100 µM (inactive). For the same compound, the GI50 is > 100 µM (inactive) in [19] and 97.9 µM (inactive) in [20].
With `CC(=O)Oc1cc2c(cc1OCC(F)(F)F)[C@H]1CC[C@]3(C)[C@@H](OC(C)=O)CC[C@H]3[C@@H]1CC2=O`, the GI50 in experiment [1] is 16.6 µM; in experiment [2], 17 µM (inactive); in [3], 22 µM (inactive); in experiment [4], 13.7 µM (inactive); in experiment [5], 20.7 µM (inactive); in experiment [6], 17.5 µM (inactive). Further, the GI50 in [7] was 15.4 µM (inactive); in experiment [8], 22.2 µM (inactive); in experiment [9] it was 19.8 µM (inactive); in [10], 46.6 µM (inactive); in [11] it was 22.8 µM (inactive); in experiment [12], 16.6 µM (inactive). The GI50 was 19.3 µM (inactive) in [13]; 21.6 µM (inactive) in experiment [14]; 30.8 µM (inactive) in [15]; 21.1 µM (inactive) in experiment [16]; 20.7 µM (inactive) in experiment [17]; 13.2 µM (inactive) in [18]. In addition, the values for the GI50 in experiment [19] and in experiment [20] were 11.1 µM (inactive) and 22.3 µM (inactive), respectively.
Take `O=S(=O)(O)/C(=N\c1cccc(Cc2ccccc2)c1)Nc1cccc(Cc2ccccc2)c1`: the GI50 was 17.6 µM in [1]; 18.1 µM (inactive) in experiment [2]; 21 µM (inactive) in [3]; 19.1 µM (inactive) in experiment [4]; 17 µM (inactive) in [5]; 19.5 µM (inactive) in experiment [6]. In addition, the GI50 is 12.9 µM (inactive) in [7]; 19.6 µM (inactive) in experiment [8]; 18.1 µM (inactive) in experiment [9]; 18 µM (inactive) in experiment [10]; 16.7 µM (inactive) in experiment [11]; 31.4 µM (inactive) in experiment [12]. For the same compound, the GI50 in [13] was 16.3 µM (inactive); in [14], 20.1 µM (inactive); in experiment [15] it was 18.3 µM (inactive); in [16] it was 17.7 µM (inactive); in experiment [17] it was 21.9 µM (inactive); in experiment [18] it was 14.9 µM (inactive). The GI50 in experiment [19] is 17.8 µM (inactive); in [20], 23.8 µM (inactive).
Regarding `COC(=O)C1C(=O)C=CN([C@H](C)c2ccccc2)[C@@H]1Cc1ccc(OC)c(OCc2ccccc2)c1I` (stereo not given in full), the GI50 was 7.1 µM in [1]; 13.5 µM (inactive) in experiment [2]; 34 µM (inactive) in experiment [3]; 17.5 µM (inactive) in experiment [4]; 18.2 µM (inactive) in experiment [5]; 8.83 µM (inactive) in [6]. The GI50 was 14.5 µM (inactive) in experiment [7]; 40.6 µM (inactive) in experiment [8]; 27.4 µM (inactive) in experiment [9]; 15.8 µM (inactive) in experiment [10]; 23.6 µM (inactive) in experiment [11]; 18.2 µM (inactive) in experiment [12]. Also, the GI50 in experiment [13] was 19.4 µM (inactive); in [14], 17 µM (inactive); in [15], 14.9 µM (inactive); in experiment [16] it was 14.9 µM (inactive); in experiment [17], 3.14 µM (inactive); in experiment [18], 3.3 µM (inactive). Also, the values for the GI50 in [19] and in experiment [20] were 18.3 µM (inactive) and 14.9 µM (inactive), respectively.
